Consider 62 compounds from a melting point compilation (Tetko et al.; mined from patent text by program, amines drawn as free bases though some values may be those of a salt).

Each structure is given as a SMILES string.

For orientation: melting point means the temperature, or range, at which the solid turns liquid. `COc1ncc(C=O)cc1Br` came in with a melting point of 94 to 95 °C.

In the case of `COc1ccccc1/C=C/CN1CCC(=O)C(C(c2ccccc2)c2ccccc2)C1` (configuration not stated), the melting point is 117 to 118 °C.

The compound `CC(Cc1c[nH]c2ccccc12)(NC(=O)OC1C2CC3CC(C2)CC1C3)C(=O)NCCC1=CCCCC1` (configuration not stated) displayed a melting point of 77 to 79 °C.

Compound `COC(=O)c1ccc(NC(=O)c2cc(C(C)C)c(C(C)C)o2)cn1` returned a melting point of 186 to 188 °C.

`COc1ccc(N2CCN(Cc3cnc(Cc4ccc(OC)c(OC)c4)c4cc(OC)c(OC)cc34)CC2)cc1` had a melting point of 176 to 177 °C.

As for `CN1Cc2ccccc2[C@H]2c3cccc4c3c(cn4C)C[C@@H]21` (relative stereo), the melting point was 184 to 185 °C.

Consider `CCOC(=O)c1cc(CCc2cc3c(s2)-n2c(C)nnc2CN=C3c2ccccc2Cl)ccc1CC(=O)O`, for which the melting point fell in the range of 128 to 132 °C.

`COC(=O)c1cccc(C(=O)NC2N=C(c3ccccc3F)c3ccccc3N(CC(=O)N3CC4CCC(CC4)C3)C2=O)c1` (racemic) registered a melting point of 166 to 177 °C.

With `C#CC[C@]12C=CC(=O)C=C1CC[C@H]1[C@@H]3CCC(=O)[C@@]3(C)CC[C@@H]12`, the melting point lay in the range of 200 to 201 °C.

In turn, `O=S(=O)(Cl)c1sc(Cl)c(Cl)c1Cl` displayed a melting point of 56 °C.

In turn, `Brc1ccc(-c2cnc(COCc3cc4ccccc4o3)o2)cc1` showed a melting point of 80 to 82 °C.

`COc1ccc2c(c1)C(=O)NCC2` returned a melting point of 90 to 93 °C.

The compound `Ic1ccc2c(c1)Cc1cc(I)ccc1-2` had a melting point of 203 to 207 °C.

In turn, `COCCNCC(O)c1ccccc1` (configuration not stated) returned a melting point of 77 to 80 °C.

As for `Cc1nc(NC(=O)Cc2ccccc2)sc1C(=O)NCc1ccccc1`, the melting point is 63 to 65 °C.

Take `COc1ccc(N2CCN(c3ccc(NC(=O)Oc4ccccc4)cc3)CC2)cc1`: the melting point is 204 °C.

`CC(C=CC(=O)NCCCN1CCCCC1)=CCc1ccc(Cl)c(Cl)c1` registered a melting point of 50 to 60 °C.

Turning to `CC(C)(C)NC(=O)[C@@H](N)C(C)(C)C`, the melting point fell in the range of 78 to 80 °C.

In the case of `O=C(O)CCCNc1ccc2c(NC(=O)CC3CCCCC3)c(Cl)ccc2n1`, the melting point is 248 to 250 °C.

In the case of `COc1ccc(/C=C/C(=O)Nc2cc(OC)c(OC)cc2C(=O)O)cc1OC`, the melting point is 236 to 239 °C.

`OCCON=Cc1ccc(-c2ccccc2)nc1` registered a melting point of 100 to 101 °C.

With `CC(=O)NC(C)c1ccc(CN2CCN(c3nccs3)CC2)cc1` (configuration not stated), the melting point was 136 to 137 °C.

`CCCOC(Nc1ccccc1)(OCCC)c1ccnc(C(=O)c2ccc(Cl)cc2)c1` registered a melting point of 140 to 141 °C.

For `CN(Cc1ccccc1)c1ncnc2c(N3CCOCC3)nc(N3CCC(N(C)C)CC3)nc12`, the melting point was 98 °C.

In turn, `O=C(O)CNC(=O)CCCCc1ccccc1` yielded a melting point of 93 to 96 °C.

As for `COc1cc(C=O)cc(OC)c1OCc1ccc([N+](=O)[O-])cc1`, the melting point lay in the range of 148 to 149 °C.

For the compound `CC(C)(C)OC(=O)NC(Cc1ccc(OCc2ccccc2)cc1)C(=O)NCC(=O)OCc1ccccc1` (configuration not stated), the melting point was 101 to 104 °C.

In turn, `NC(=O)COCCN1CCN(C(c2ccccc2)c2ccccc2)CC1` returned a melting point of 119 to 120 °C.

Take `CCN1c2ncc(COc3cccc(C(=O)O)c3)cc2C(=O)N(C)c2ccc(Cl)nc21`: the melting point lay in the range of 181 to 182 °C.

For `CC(=O)N1CCC2(CC1)CN=C(c1cc3sc(C)c(N(C)S(=O)(=O)c4cccs4)c3[nH]1)S2`, the melting point is 231 °C.

Compound `Nc1nnc2ccc(N3CCCCC3)nn12` came in with a melting point of 245 to 246 °C.

The compound `CCN1CCN(CCCOc2cc3ncc(C#N)c(Nc4ccc(Sc5nc(C)c(C)n5CC)c(Cl)c4)c3cc2OC)CC1` showed a melting point of 229 to 230 °C.

For the compound `COc1nc(C#N)c(C#N)n1C`, the melting point was 192 to 194 °C.

The compound `CC(=O)c1cn(Cc2ccccc2)c(=O)n(Cc2ccccc2)c1=O` came in with a melting point of 92 to 93 °C.

In the case of `C=CCN(c1ccccc1CC(=O)N(C)C)c1c(Cl)cccc1Cl`, the melting point was in the range of 110 to 114 °C.

Compound `COc1ccc(-c2cn(C)cc(-c3ccccc3)c2=O)cc1OC` came in with a melting point of 154 to 157 °C.

As to `N#Cc1ccc2c(c1)Sc1ccc(N)cc1C=C2`, the melting point fell in the range of 181 to 183 °C.

With `C=CCCn1c(=O)c2c(ncn2CCC)n(C)c1=O`, the melting point stood at 48 °C.

In turn, `COc1ccc(Br)c(C=O)c1` came in with a melting point of 73 to 74 °C.

Consider `COc1cccc2c(=O)c(C#N)c(N)oc12`, for which the melting point was 300 °C.

In the case of `CC(C)(O)c1cnc2c(NC(=O)c3c(Cl)cccc3Cl)cccc2c1`, the melting point is 187 to 189 °C.

Compound `CCc1cc2c3c(ccc2[nH]1)OCC(CN1CC=C(c2c[nH]c4ccc(F)cc24)CC1)O3` (configuration not stated) showed a melting point of 81 to 82 °C.

With `COc1ccc(C(=O)Nc2c(Cl)cncc2Cl)c2c1oc1ccc(Br)cc12`, the melting point amounted to 308 °C.

As to `CC(N)Cn1ncc2ccc3oc(C(=O)NCC(C)O)cc3c21` (configuration not stated), the melting point lay within 190 to 191 °C.

`COc1ccc(COc2ccc(NC(C)=O)cc2C(=O)C=Cc2ccc(OCc3ccccc3)c(OCc3ccccc3)c2)cc1` had a melting point of 145 to 146 °C.

With `CSc1ccc(N)c(C(=O)NCC2CCN(C(c3ccccc3)c3ccccc3)CC2)c1`, the melting point is 156 to 157 °C.

On to `CCOc1cccc(NC(=O)N2CCc3cc(SC)c(C(F)(F)F)cc32)c1`, for which the melting point lay in the range of 233 to 234 °C.

`COC(=O)c1nc(-c2ccc(Cl)cc2)c(F)c(N)c1OC` showed a melting point of 93 to 94 °C.

In the case of `CC(C)(C)OC(=O)N1CCC(Cn2cc(S(=O)(=O)c3ccccc3)c3ccccc32)CC1`, the melting point lay in the range of 181 to 182 °C.

Compound `O=C(c1ccccc1)n1ccc2ccccc21` gave a melting point of 54 to 55 °C.

`CC(C)(O)C(=O)c1ccc(OCC2CO2)cc1` (configuration not stated) gave a melting point of 54 °C.

Consider `COc1ccc(CN(CCN(C)CCCN=C(NC#N)NCCSCc2csc(NC(=N)N)n2)c2ccccn2)cc1`, for which the melting point was 54 °C.

As for `CSc1nc(=O)n(C(C)(C)C)c(=O)[nH]1`, the melting point was in the range of 112 to 115 °C.

In turn, `Cc1cc(Cc2cc(C(C)(C)CC(C)(C)C)cc(C(C)(C)CC(C)(C)C)c2O)c(O)c(-n2nc3ccccc3n2)c1` had a melting point of 138 °C.

In turn, `CCOC(=O)c1cc(-n2c(=O)c(C)c(C)n(C)c2=O)ccc1Cl` returned a melting point of 159 to 161 °C.

Compound `O=C(NCCc1ccccn1)c1ccccc1-c1ccccc1CNS(=O)(=O)c1ccc(F)cc1` showed a melting point of 130 °C.

For the compound `COc1ccc2c(Cc3c(Cl)cncc3Cl)nnc(CO)c2c1`, the melting point is 190 to 195 °C.

Consider `CCOC(=O)c1cccn2c(C(=O)OCC)c(Cl)nc12`, for which the melting point was in the range of 105 to 106 °C.

As for `CCOC(=O)C1=C(COCCNC2=NC(=O)CS2)NC(C)=C(C(=O)OC)C1c1cccc(Cl)c1Cl` (configuration not stated), the melting point lay within 204 to 205 °C.

For the compound `C[C@H]1CN(c2c(F)cc3c(=O)c(C(=O)O)cn(CCF)c3c2Cl)C[C@H]1NC(=O)OC(C)(C)C` (relative stereo), the melting point is 229 to 231 °C.

The compound `NC(=O)N1CCC(c2nn(-c3ccc(C(F)(F)F)cc3)c3ccc(F)cc23)CC1` came in with a melting point of 172 to 174 °C.

Compound `CC(C)(C)OC(=O)Nc1ccc(CCO)cc1` came in with a melting point of 104 to 105 °C.
